{
  "source": "patent US20030170327A1",
  "about": "“Vitamin and zinc monomethionine compositions” (priority 2002, published 2003)",
  "origin": "cited, not measured here",
  "conditions": "versus other forms of zinc found in nutritional supplements",
  "data": [
    {"smiles": "CSCC[C@H](N)C(=O)O.[Zn]", "note": "[zinc monomethionine]", "values": [
      {"measurement": "absorption in comparison to other forms of zinc", "value": "better absorbed"},
      {"measurement": "retention in comparison to other forms of zinc", "value": "retained longer"}
    ]}
  ]
}
